Converted amounts (≈) assume the structure as drawn.

The record followed here is patent US20210292807A1, “METHOD FOR TESTING ANTIMICROBIAL SUSCEPTIBILITY” (priority 2017, published 2021).

Assay [1] deals with Klebsiella isolates. Description: Acoustic flow cytometry-assisted susceptibility test (FAST), MICFAST and S/NS, Klebsiella isolates. In kind it is cell-based, Klebsiella pneumoniae, Klebsiella oxytoca. As to conditions: limited clinical screen concentrations. The method, then: A 1 mL aliquot of bacterial suspension was centrifuged, washed and resuspended in 1 mL filtered Hank's Buffered Salt Solution (HBSS; comprising about 0.137 M NaCl, about 5.4 mM KCl, about 0.25 mM Na2HPO4, about 0.1 g Glucose, about 0.44 mM KH2PO4, 1.3 mM CaCl2), 1.0 mM MgSO4, about 1.3 mM CaCl2), 1.0 mM MgSO4, and about 4.2 mM NaHCO3) and diluted in series (e.g., in a 1:10 serial dilution) to a final 1:1000 dilution.
One μL (microliter) of SYTO 9 stain (e.g., ThermoFisher Scientific) working stock solution was added to the final dilution at a final concentration of 5 μM and incubated for 5 minutes before counting bacterial events by acoustic flow cytometer (AFC) (Attune, ThermoFisher, Eugene, Oreg., USA), which was used to prepare a standardised inoculum density for susceptibility testing.
(§1) An aliquot of bacterial suspension was added to 50 mL centrifuge tubes (Corning, N.Y.) containing 9 mL of pre-warmed (37° C.) filtered MHB to produce a final density of 5×10^5-1×10^6 bacteria per mL. This suspension was incubated at 37° C. with shaking at 100 RPM for 30 minutes to obtain an actively dividing culture. An aliquot of antibiotic working solution from the previously described dilution series (appropriate to the concentration tested) was then added to each tube before a further 30-minute incubation with shaking, during which time a microbroth dilution (MBD) plate was prepared for overnight incubation at 37° C. as previously described in Clinical and Laboratory Standards Institute (2015) Performance Standards for Antimicrobial Susceptibility Testing: Informational Supplement. CLSI document M100-S25. Clinical and Laboratory Standards Institute, 950, West Valley Road, Suite 2500, Wayne, Pa., 19087, USA.
One millilitre of bacterial suspension from each antibiotic concentration was harvested by centrifugation at 7800×g for 5 minutes, washed and diluted 1:10 in filtered HBSS in a light-impermeable microcentrifuge tube, then stained with SYTO 9 stain at a final concentration of 5 μM, and incubated for 5 min before AFC sampling. Hoechst 33342 dye (NucBlue, Thermo Fisher Scientific, Eugene, Oreg., USA) and a SYTO 9/propidium iodide (PI) combination (Thermo Fisher Scientific) were used in a series of replicate experiments.
The acoustic flow cytometer employed was Attune acoustic flow cytometer (Thermo Fisher Scientific), having installed therein a 488 nm blue laser with a 530/30 nm filter on the photomultiplier tube for measuring fluorescence of cells assayed. Alternatively, the Attune NxT acoustic flow cytometer (Thermo Fisher Scientific) can be employed. AFC was calibrated at the beginning of each acquisition session using fluorescently labelled size calibration beads, in accordance with the manufacturer's instructions (ThermoFisher Scientific). The AFC settings were as follows: Forward Scatter (FSC) voltage 3100, FSC threshold 4×1000 AND, blue laser 1 (BL1—530/30 nm) voltage 1900, BL1 threshold 1×1000 AND, high sensitivity, flow rate 25 μL/minute, and an acquisition volume of 125 μL. Acquisition was halted after either collection of 20,000 events across all gates, or after 3 minutes, with each sample acquired in technical triplicate.
Collected data was exported in the FCS 3.0 file format and analysed in Flow v10.0 (FlowJo LLC, Ashland, Oreg., USA) by a single user, blinded to the MIC results by BMD (MICBMD).
Subsequent to quantitative MICFAST determination, the acoustic flow cytometer data were re-analysed in silico to produce a limited sub-set for qualitative susceptibility determination. The six antibiotic dilutions (0 mg/L, 0.25 mg/L, 1 mg/L, 2 mg/L, 4 mg/L and 16 mg/L) most relevant to qualitative susceptibility assessment were used. In silico analysis was restricted to the first technical triplicate of each recorded sample. Gating strategies remained consistent, with the addition of a gate restricting analysis to only those events recorded in the first 60 seconds of acquisition.
A general note: A flow cytometer gives signals particle by particle.

Assay [2] has as its system Klebsiella isolates. Description: Broth microdilution MIC (MICBMD) of Klebsiella isolates. In kind it is cell-based, Klebsiella pneumoniae, Klebsiella oxytoca. Conditions: limited clinical screen concentrations. The method, then: as §1
FIG. 2 outlines the work flow as exemplified herein. In brief, an isolate was retrieved from cryopreservation, plated onto blood agar to ensure purity, and inoculated into trypticase soy broth (TSB, described above) overnight to simulate biological fluids. A 1 mL aliquot of this overnight suspension was inoculated into Mueller-Hinton broth (MHB) [comprising about 300.0 g beef extract (dehydrated infusion from), about 17.5 g casein hydrolysate, about 1.5 g starch, reconstituted in about 1 L of water, pH 7.3±0.1 as measured and kept at 25° C.] and incubated at 37° C. to ensure bacteria were actively dividing. One aliquot was subjected to traditional microbroth dilution (MBD) susceptibility testing.

The test system of assay [3] is Staphylococcus aureus. Kind of assay: Acoustic flow cytometry-assisted susceptibility test (FAST) of Staphylococcus aureus isolates. In kind it is cell-based. More on the design: MIC dilution at which susceptibility-associated signature is observed by AFC: unit not given beside the values. The method, then: The material and methods utilized are briefly outlined herein below. The method used was similar to that outlined in the earlier examples albeit adjusted to allow for 3 hour incubation of Staphylococcus aureus to account for longer doubling times of Staphylococcus aureus relative to K. pneumoniae used in the previous examples.
Events were acquired by forward scatter and BL1 (515 nm-545 nm) using the Attune with voltages and thresholding set as follows: Forward Scatter Voltage: 3050; Forward Scatter Threshold: 3×1000 AND; Side Scatter Voltage: 2950; Side Scatter Threshold: IGNORE; BL1 Voltage: 1500; BL1 Threshold: 1×1000 AND.
Nine mL of MHB was aliquoted into twelve, 50 mL Falcon tubes. Each tube was labelled with the required final test concentration of antibiotic. […] Tubes were transferred to a 35° C. incubator to pre-warm.
One 1 mL of the overnight bacterial suspension was transferred into a 1.5 mL microcentrifuge tube and centrifuge at 7,800×g for about 5 minutes. The supernatant was discarded, and the pellet re-suspended in 1 mL of 0.1 μm filtered HBSS. This step was optionally repeat.
About 900 μL of HBSS was dispended into three 1.5 mL tubes—two clear tubes and one amber tube. About 100 μL of the bacterial suspension was inoculated into the first tube (clear) and serially dilute to reach 1:1000 by the third tube (amber). About 1 μl of SYTO 9 (5 μM final concentration) was added to the third tube. The dye was incubated, protected from light, for at least 5 minutes (individual sample types were optionally required with longer incubations) and then the Stained Control on the Attune acoustic flow cytometer instrument was read
The event density (events/μL) from your stained control aliquots was used to calculate the inoculum volume required to produce a 5.5×10^5 bacteria mL-1 in 10 mL of MHB. For example, (400 events/A)/(10 mL×550000)=7.3 μL, rounded up to the closest 10 μL.
The required volume of bacterial suspension was added from the overnight culture into each 50 ml tube with 9 ml of preheated MHB. Optionally incubate with shaking and protected from light, at 100 RPM at 35° C. for 60 minutes.
MHB (0.1 μm filtered) was used to dilute the antibiotics in this preparation. About one aliquot of antibiotic was removed from the −20° C. freezer and equilibrated to room temperature by ambient heat exchange, and diluted to reach a range of working stock concentrations that were are ten times the desired test concentrations.
Once the 60-minute incubation of bacterial suspension was complete, about 1 mL of 10× antibiotic stocks were added to tubes containing bacterial suspensions to reach final desired test concentrations (1 ml antibiotic and total volume 10 ml). The 50 mL tubes were returned to the incubator and incubated, by shaking at 100 RPM at 35° C., for a further 3 hours.
After 3 hours, about 1 mL suspension was harvested from each tube and transferred to a 1.5 mL clear microcentrifuge tube (marked with the corresponding antibiotic concentration), then centrifuge at 7,800×g for 5 minutes. The supernatant discarded and the pellet resuspended in 1 mL of 0.1 μm filtered HBSS. This wash step was optionally repeated.
Using the computer connected to the Attune, new samples were created ready for the collection of data. That the following parameters were set: Sensitivity: High Sensitivity; Flow Rate: 25 μL/minute; Acquisition Volume: 125 μL; Events Collected: No less than 20,000 from all gates, Time: 1 minute.
About 899 μL HBSS was dispensed into one 1.5 mL amber tube per sample. About 100 μL of suspension per tube was added to achieve a 1 in 10 dilution. About 1 μl of SYTO 9 was added to each tube and the tube vortexed for no more than 2 seconds (over vortexing can lead to bacterial clustering and/or attachment to tube walls).
Samples were placed on the SIP and acquired, in technical triplicate, as per the parameters outlined above. […]

Assay [4] relates to Staphylococcus aureus. Kind of assay: Broth microdilution (BMD) MIC of Staphylococcus aureus isolates. In kind it is cell-based. The source says:
The acoustic flow cytometry assisted method of the present invention was employed essentially as described in the previous working examples to determine susceptibility of Staphylococcus aureus to both cefoxitin and oxacillin. Susceptibility classification into S/NS and quantitative MIC values obtained using the acoustic flow cytometry assisted method were compared to results obtained using the conventional broth microdilution (BMD) method. Results are shown in Table 4 (Panels A and B) below and in FIGS. 9-12.
In general terms: In broth dilution the organism is exposed to a series of concentrations in liquid medium.

Where [5] appears, read: K. pneumoniae ATCC 700603 (carbapenem susceptible control).
Where [6] appears, read: K. pneumoniae ATCC BAA1705 (carbapenem resistant control).
[7] abbreviates: S. aureus isolate ATCC 29213, MSSA.
The mark [8] stands for this setting: S. aureus isolate W0096111, MSSA.
[9] abbreviates: S. aureus isolate W0226111, MSSA.
[10] abbreviates: S. aureus isolate W0236111, MSSA.
The mark [11] stands for this setting: S. aureus isolate W0296111, MSSA.
Setting [12] is: S. aureus isolate W0816111, MSSA.
Setting [13] is: S. aureus isolate W0866111, MRSA.
The mark [14] stands for this setting: S. aureus isolate W6496111, MSSA.
The mark [15] stands for this setting: S. aureus isolate W9196111, MSSA.
Where [16] appears, read: S. aureus isolate W9346111, MRSA.
[17] abbreviates: S. aureus isolate W . . . 6111, MRSA.
Setting [18] is: S. aureus isolate WACC 98, MRSA.

Consider `C[C@@H](O)[C@H]1C(=O)N2C(C(=O)O)=C(S[C@@H]3CN[C@H](C(=O)Nc4cccc(C(=O)O)c4)C3)[C@H](C)[C@H]12` [Analytical Ertapenem, ertapenem], for which the MICFAST is ≤0.25 with Klebsiella isolates [1] (setting [5]) and >16 with Klebsiella isolates [1] (setting [6]). Besides, the MICBMD against Klebsiella isolates [2] (setting [5]) is on record as ≤0.25; against Klebsiella isolates [2] (setting [6]), >16.

Regarding `Cc1onc(-c2ccccc2)c1C(=O)N[C@@H]1C(=O)N2[C@@H]1SC(C)(C)[C@@H]2C(=O)O` [Oxacillin, oxacillin], the “MIC dilution at which susceptibility-associated signature is observed by AFC” value against Staphylococcus aureus [3] (S. aureus ATCC 29213) turned out to be 0.25; in the assay on Staphylococcus aureus [3] (S. aureus WACC 98), 256. Also, the MIC (FAST) in the assay on Staphylococcus aureus [3] (setting [7]), with Staphylococcus aureus [3] (setting [8]), with Staphylococcus aureus [3] (setting [9]), with Staphylococcus aureus [3] (setting [10]), against Staphylococcus aureus [3] (setting [11]) and in the assay on Staphylococcus aureus [3] (setting [12]) was ≤ 1 µg/mL throughout. The MIC (FAST) was 16 µg/mL (≈ 39.9 µM) against Staphylococcus aureus [3] (setting [13]); 1 µg/mL (≈ 2.49 µM) with Staphylococcus aureus [3] (setting [14]); ≤ 1 µg/mL against Staphylococcus aureus [3] (setting [15]); 32 µg/mL (≈ 79.7 µM) against Staphylococcus aureus [3] (setting [16]); 16 µg/mL (≈ 39.9 µM) in the assay on Staphylococcus aureus [3] (setting [17]); 256 µg/mL (≈ 638 µM) with Staphylococcus aureus [3] (setting [18]). Also, in the assay on Staphylococcus aureus [3] (clinical methicillin resistant S. aureus WACC 98, at EUCAST breakpoint 8 mg/L), the “events remaining in Unexposed Cell Morphotype gate (FIG. 14B)” value is “above the 10% threshold for MICFAST”. The “events remaining in Unexposed Cell Morphotype gate (FIG. 14A)” value in the assay with Staphylococcus aureus [3] (control methicillin susceptible S. aureus ATCC 25912, oxacillin concentration range) is “remains below the 10% MICFAST threshold”. Also, the MIC (BMD) in the assay with Staphylococcus aureus [4] (setting [7]), with Staphylococcus aureus [4] (setting [8]), in the assay with Staphylococcus aureus [4] (setting [9]), in the assay with Staphylococcus aureus [4] (setting [10]), with Staphylococcus aureus [4] (setting [11]) and with Staphylococcus aureus [4] (setting [12]) was 0.25 µg/mL in each case. Further, the MIC (BMD) in the assay on Staphylococcus aureus [4] (setting [13]) is 16 µg/mL; in the assay with Staphylococcus aureus [4] (setting [14]), 1 µg/mL; in the assay on Staphylococcus aureus [4] (setting [15]), 0.25 µg/mL; in the assay with Staphylococcus aureus [4] (setting [16]), 32 µg/mL; in the assay with Staphylococcus aureus [4] (setting [17]), 8 µg/mL; with Staphylococcus aureus [4] (setting [18]), 256 µg/mL.
